Patent US11708338B2, “Substituted phenyl sulfonyl phenyl triazole thiones and uses thereof” (Neuropore Therapies, Inc., priority 2017, dated 2023)

Columns and labels:
Format in all cases: in vivo, mouse
L61 ASYN transgenic mice = assay: Grip strength evaluation (motor performance), 3 month administration study; details: 5 mg/kg and 10 mg/kg i.p. daily, after 70 days of treatment
Procedure: The effects of Compound 1 on the motor performance deficits (grip strength) and a marker of neuroinflammation (Translocator Protein (18 kDa)) were assessed in both L61 ASYN transgenic and non-transgenic mice in a 3 month administration study.
(§1) Compound 1 was injected into L61 ASYN transgenic mice and non-transgenic control mice (i.p., once daily) at doses of 5 and 10 mg/kg for 3 months (79 total mice, n=14-17 mice per treatment group). The vehicle control consisted of a solution containing 5% DMSO+20% Cremphor EL+0.9% normal saline. The baseline grip strength of mice was evaluated prior to starting treatments for the 3 month study, and then re-evaluated following 70 days of treatment with vehicle or Compound 1 (5 or 10 mg/kg, i.p. daily).
At baseline, there was a statistically significant grip strength deficit in transgenic mice compared to non-transgenic mice. Treatment with Compound 1 (5 & 10 mg/kg) improved L61 ASYN transgenic grip strength deficits.

[1] = tested on: Translocator Protein (18 kDa) (TSPO); assay: TSPO immunofluorescence in cortex of L41 APP transgenic mice; details: 5 mg/kg daily i.p.
Procedure: Neuroinflammation is associated with increased expression of the 18-kDa translocator protein (TSPO), which is present on the mitochondria of activated microglia, astroglia and macrophages (Crawshaw and Robertson 2017). The effects of Compound 1 on TSPO expression were assessed in both L41 APP transgenic and non-transgenic mice in a 1 month administration study. L41 APP transgenic mice (36 total mice, n=8-11 mice per treatment group) were injected (i.p.) daily with 5 mg/kg of Compound 1 or a vehicle control (5% DMSO+20% Cremphor EL+0.9% normal saline) for […]. Non-transgenic mice (18 total mice, n=8-11 mice per treatment group) were used as a control and were injected daily (i.p.) with 10 mg/kg of Compound 1 (data not shown) or a vehicle control (5% DMSO+20% Cremphor EL+0.9% normal saline) for 1 month. After 30 days, the mice were sacrificed, and immunofluoresence (IF) detection of TSPO were assessed in the harvested brain tissues.
The harvested brain tissues were drop fixed using 4% PFA and sectioned on a vibratome, and representative sections corresponding to the neuropil of cortex were assessed for TSPO with standard immunofluorescence (IF) staining.

[2] = tested on: total alpha-synuclein (ASYN); assay: IHC quantification of total alpha-synuclein deposits in brain, 1 month administration study; details: for reduction of total alpha-synuclein level in cortex as compared to vehicle control: L61 ASYN transgenic mice, FIG. 7A
Procedure: Multiple in vivo administration studies of Compound 1 were carried out in the Line 61 (L61) mThy1-alpha-synuclein transgenic mouse model of Parkinson's disease (PD). The mThy1-alpha-synuclein transgenic mouse model overexpresses wild-type human ASYN under the Thy-1 promoter studies (commonly referred to as Line 61 transgenic mice; Rockenstein et al., 2002). This transgenic mouse develops extensive accumulation of alpha-synuclein (ASYN) in areas relevant to PD (Rockenstein et al., 2002; Chesselet et al., 2012; Games et al., 2013), neurodegeneration including dopaminergic neurodegeneration, reduced dopamine (DA) and TH loss in the striatum (Masliah et al., 2000; Lam et al., 2011), and motor deficits (Fleming et al., 2004). Male transgenic and non-transgenic littermates (3-3.5 mo) were used for all in vivo studies presented here.
Alpha-synuclein (ASYN) is a neuronal protein whose dysregulation has been implicated in the pathogenesis of PD. The effects of Compound 1 on alpha-synuclein aggregation were assessed in both L61 ASYN transgenic and non-transgenic mice in a 1 month administration study. L61 ASYN transgenic mice (36 total mice, n=8-11 mice per treatment group) were injected (i.p.) with 1, 5, or 10 mg/kg of Compound 1 or a vehicle control (5% DMSO+20% Cremphor EL+0.9% normal saline) per day for 1 month. Non-transgenic mice (18 total mice, n=8-11 mice per treatment group) were used as a control and were injected daily (i.p.) with 10 mg/kg of Compound 1 or a vehicle control (5% DMSO+20% Cremphor EL+0.9% normal saline) per day for 1 month. At the end of one month, the mice were sacrificed, and immunohistochemical (IHC) detection of total alpha-synuclein deposits, insoluble alpha-synuclein deposits (PK+resistant), microtubule-associated protein 1A/1B-light chain 3 (LC3), and monomeric alpha-synuclein levels were assessed in the harvested brain tissues.
The quantification and IHC staining of total alpha-synuclein were performed using known techniques (Rockenstein et al., J Neurosci Res. 2002, 68(5):568-78; Tanji et al., Acta Neuropathol. 2010, 120, 145-154; Nuber et al., Brain. 2013, February; 136(Pt 2):412-32).

[3] = tested on: Translocator Protein (18 kDa) (TSPO); assay: TSPO immunofluorescence in cortex of L61 mice, 3 month administration study; details: L61 ASYN transgenic mice, 5 and 10 mg/kg i.p. daily, 3 months
Procedure: as §1
Neuroinflammation is associated with increased expression of the 18-kDa translocator protein (TSPO), which is a marker for inflammation and is present on the mitochondria of activated microglia, astroglia and macrophages (Crawshaw and Robertson 2017). The effects of Compound 1 on the levels of Translocator Protein (18 kDa) (TSPO) were assessed in both L61 ASYN transgenic and non-transgenic mice in the aforementioned 3 month administration study. At the end of the study, the mice were sacrificed, and immunofluorescence (IF) detection of TSPO were assessed in the harvested brain tissues.
FIGS. 15A-B show the levels of TSPO immunolabeling in representative cross-sections of the cortex of the mice. […]

[4] = L61 ASYN transgenic mice, 1, 5 or 10 mg/kg per day i.p.

SMILES: O=S(=O)(c1ccc(-n2cn[nH]c2=S)cc1)c1ccc(Cl)c(C(F)(F)F)c1 [Compound 1, 4-(4-((4-chloro-3-(trifluoromethyl)phenyl)sulfonyl)phenyl)-2,4-dihydro-3H-1,2,4-triazole-3-thione]
- grip strength vs vehicle-treated transgenic mice (L61 ASYN transgenic mice): higher grip strengths than vehicle-treated transgenic mice in a statistically significant manner
- cortical TSPO level vs vehicle-treated Line 41 mice, quantification (FIG. 20) [1]: reduces the TSPO level in a statistically significant manner
- reduction of total alpha-synuclein level in cortex as compared to vehicle control ([2]; 1 mg/kg per day i.p.): 13%
- reduction of total alpha-synuclein level in cortex as compared to vehicle control ([2]; 5 mg/kg per day i.p.): 32%
- reduction of total alpha-synuclein level in cortex as compared to vehicle control ([2]; 10 mg/kg per day i.p.): 38%
- total ASYN in the neuropil of cortex vs vehicle control [2, 4]: reduced
- total ASYN in the neuropil of hippocampus vs vehicle control [2, 4]: reduced
- total ASYN in the neuropil of striatum vs vehicle control [2, 4]: reduced
- levels of TSPO in cortex vs vehicle control [3]: significantly decreased
